Counter-ions that a name gives are not always drawn.
Key:
[1] = system: subjects addicted to drugs; assay: Clinical trial: abstinence treatment of subjects addicted to drugs, asafetida injection intramuscularly; type: in vivo, human; details: 20 cases per group, thrice per day, phenoxyimidazoline hydrochloride 0.1 mg tablet
Description: The typical performance of abstinence syndrome was as follows: yawning, lacrimation, perspiring, bad mood, anxiety, and dysphoria.
Apparently effective: the abstinence syndrome disappears completely and performance is normal.
Effective: the abstinence syndrome is obviously abated.
Ineffective: the abstinence syndrome has no obvious remission or no remission at all.
The subjects addicted to drugs were randomly grouped into asafetida injection treatment group, phenoxyimidazoline hydrochloride positive control group, placebo negative control group, wherein the phenoxyimidazoline hydrochloride is a relatively effective medicine for abstinence of drugs at present. The pharmaceuticals and usage thereof in each group were as follows:
Asafetida injection, 2 ml (equivalent to 1 g of original crude material)/bottle, thrice per day, a bottle per time, injected intramuscularly, for three consecutive days.
Phenoxyimidazoline hydrochloride, 0.1 mg/tablet, thrice per day, a tablet per time, for three consecutive days.
Placebo (physiological saline), 2 ml/bottle, thrice per day, a bottle per time, injected intramuscularly, for three consecutive days.

morphine-dependent rats = assay: Naloxone-promoted abstinence experiment in morphine-dependent rats (symptom scores and body weight decrease); type: in vivo, Wistar rat
[2] = system: subjects addicted to heroin for over 10 years; assay: Clinical trial (typical case): subjects addicted to heroin for over 10 years, asafetida injection intravenously; type: in vivo, human; details: 25 cases per group, heroin over 10 years, phenoxyimidazoline hydrochloride 0.1 mg tablet, thrice per day
[3] = three days, asafetida 2 ml i.m.
[4] = clonidine 0.1 mg/kg perfused, X ± S, n=10
[5] = asafetida 5 ml i.v., three days

Clc1cccc(Cl)c1N=C1NCCN1 [clonidine, phenoxyimidazoline hydrochloride]
Apparently effective, Number of Cases ([1]; three consecutive days, asafetida injection 2 ml (1 g crude material) intramuscularly): 13
Apparently effective, % [1, 3]: 65.00%
Effective, % [1, 3]: 35.00%
Effective, Number of Cases [1, 3]: 7
Ineffective, % [1, 3]: 0%
Ineffective, Number of Cases [1, 3]: 0
Total effective rate % [1, 3]: 100%
Scores of performance and autonomic nervous system symptoms of rats after naloxone administration (morphine-dependent rats; clonidine 0.1 mg/kg perfused once a day, three times, 15 min after naloxone 4 mg/kg i.p., mean ± SD, n=10): 2.22 ± 2.29
Scores of performance and autonomic nervous system symptoms of rats after naloxone administration (morphine-dependent rats; clonidine 0.1 mg/kg perfused, 30 min after naloxone): 2.68 ± 1.81
Scores of performance and autonomic nervous system symptoms of rats after naloxone administration (morphine-dependent rats; clonidine 0.1 mg/kg perfused, 45 min after naloxone): 1.21 ± 1.80
Scores of performance and autonomic nervous system symptoms of rats after naloxone administration (morphine-dependent rats; clonidine 0.1 mg/kg perfused, 60 min after naloxone): 1.61 ± 1.54
Scores of performance and autonomic nervous system symptoms of rats after naloxone administration (morphine-dependent rats; clonidine 0.1 mg/kg perfused, 90 min after naloxone): 0.40 ± 0.68
Scores of performance and autonomic nervous system symptoms of rats after naloxone administration (morphine-dependent rats; clonidine 0.1 mg/kg perfused, 120 min after naloxone): 0 ± 0
body weight decreasing at 30 min after administrating naloxone (morphine-dependent rats; [4]): 4.077 ± 3.431 g
body weight decreasing at 60 min after administrating naloxone (morphine-dependent rats; [4]): 5.560 ± 4.960 g
Apparently effective, % [2, 5]: 60.00%
Effective, % [2, 5]: 40.00%
Effective, Number of Cases [2, 5]: 10
Ineffective, % [2, 5]: 0%
Ineffective, Number of Cases [2, 5]: 0
Total effective rate % [2, 5]: 100%
Apparently effective, Number of Cases ([2]; three consecutive days, asafetida injection 5 ml (2.5 g crude material) intravenously): 15

From patent US20060078570A1, “Use of asafetida extract as medicine for abstinence of drugs” (priority 2004, published 2006)
